Legend:
[1] = test system: CjCst-I; format: biochemical, Campylobacter jejuni
[2] = test system: CjCst-II; format: biochemical, Campylobacter jejuni

Structure (SMILES) | activity towards sialylating [1] | Sialylation by CjCst-II, acceptor GM3ßSph [2] | Sialylation by CjCst-II, acceptor GM3βProN3 [2]
CCCCCCCCCCCCC/C=C/[C@@H](O)[C@@H](N)CO [GD1b sphingosine] | very good activity |  | 
CC(=O)N[C@H]1[C@H](O)[C@H](NC(C)=O)C(O)O[C@@H]1CO (stereo partly drawn) [ManNAc4NAc, 4-acetamido-4-deoxy-N-acetylmannosamine] |  | No reaction | No reaction

Source: US20240409571A1 (priority 2023, published 2024)
